Measurements from PubChem BioAssay AID2060347 (Molecular Pharmacology Branch, DTP, NCI, 2025).

System: 817829-284-R-J1-PDC spheroids with HUVEC/MSC, viability
Assay: Anticancer human tumor 817829-284-R-J1-PDC patient-derived colon adenocarcinoma cell line growth inhibition [TAK]
Details: for IC50: curve of first compound; for viability, T/C: stronger effect = lower value
Description: Combinatorial screen of targeted agents with TAK-243 and ipatasertib in multi-cell type tumor spheroids
A high-throughput screen of multi-cell type tumor spheroids was designed to identify active combinations of targeted small molecules and TAK-243 or ipatasertib. Complex spheroids include a stromal component modeled by human endothelial cells (HUVEC) and fibroblasts modeled by human mesenchymal stem cells (MSCs). The concentration ranges selected for each drug and investigational agent were based upon clinically achievable concentrations if the clinical Cmax of the agent was known.
Compounds. The drugs and investigational agents: TAK-243 (785004), ipatasertib (767898), everolimus (733504), selumetinib (741078), bortezomib (756655), trametinib (758246), ixazomib (758254), vemurafenib (761431), dabrafenib (764134), sapanisertib (764658), alpelisib (765974), and copanlisib (816437), were obtained from the National Cancer Institute (NCI) Developmental Therapeutics Program Chemical Repository. The FDA-approved anticancer drug set is available from the NCI Developmental Therapeutics Program. […] The stock solutions were prepared in dimethyl sulfoxide (DMSO, Sigma-Aldrich, St. Louis, MO, cat. D2650) at 800-fold the tested concentration and stored at -70 degrees C prior to their use. All drugs and investigational agents were tested over a range starting from a high concentration at or near the clinical Cmax and decreasing in half-log increments. If the clinical Cmax for an agent had not been determined, the highest concentration tested was 10 microM.
NCI60 Cell Culture. NCI60 cell lines were obtained from the NCI Developmental Therapeutics Program Tumor Repository. For each lot of cells, the Repository performed Applied Biosystems AmpFLSTR Identifiler testing with PCR amplification to confirm consistency with the published Identifier STR profile for each cell line. Cells were kept in continuous culture for no more than 20 passages. The optimal seeding densities for each of the cell lines at each time point assessed were determined prior to performing the concentration response studies. Briefly, the NCI60 human tumor lines were grown as monolayers in RPMI 1640 medium supplemented with 10% FBS and 2 mmol/L L-glutamine.
An additional 2 lines were from the NCI60 cell line panel including melanomas, MALME-3M and SK-MEL-2. Pooled donor human umbilical vein endothelial cells (HUVEC, Lonza, cat. CC-2519) and human mesenchymal stem cells (hMSC, Lonza, cat. PT-2501) were purchased from Lonza (Walkersville, MD).
PDMR cell lines were grown in complete medium (DC medium): Dulbecco's modified Eagle's medium (DMEM)/F12 supplemented with 5% fetal bovine serum (FBS), 2 mM L-glutamine, 100 U/mL penicillin and 100 µg/ml streptomycin, 0.4 µg/ml hydrocortisone, 10 ng/ml epidermal growth factor (EGF) recombinant human protein, 24 µg/mL adenine, and 0.1 mg/mL primocin. During culture from frozen stock vials, PDMR cells were cultured in the same medium containing 10 µM Y-27632 (see Table 3). The PDCs were cultured in complete DMEM/F12 media without 10 microM Y-27632 dihydrochloride for at least two passages prior to the screen. The pooled donor HUVEC and hMSC were cultured in endothelial cell growth medium 2 (PromoCell, Heidelberg, Germany, cat. C-22011) and mesenchymal stem cell growth medium 2 (PromoCell, cat. C-28009), respectively. For all experiments, HUVEC and hMSC were used at passages </=5.
For the pre-screen, cell seeding densities were determined from a titration spanning the range from 5,000 to 313 cells per well. The mct-spheroids including 60% malignant cells, 25% HUVEC and 15% MSC dispensed as a mixture into U-bottom Ultra-Low Attachment 384-well plates (Corning, NY)
High-throughput Drug Combination Screening.
Prior to their inoculation into 384-well plates, malignant cells, HUVEC, and hMSC were removed from T flasks using TrypLE express (Thermo Fisher Scientific, cat. 12605036) and harvested by centrifugation for 5 min at 233 x g. […]

Cc1nc(NC(=O)N2CCCC2C(N)=O)sc1-c1ccnc(C(C)(C)C(F)(F)F)c1 (stereo not given) + CC(C)NCC(C(=O)N1CCN(c2ncnc3c2C(C)CC3O)CC1)c1ccc(Cl)cc1
IC50 (second compound 0.3 µM): 1190 nM | IC50 (second compound 0.949 µM): 76.2 nM | IC50 (second compound 3 µM): < 31.6 nM | IC50 (second compound 9.49 µM): < 31.6 nM | IC50 (second compound 30 µM): < 31.6 nM | viability, T/C (second compound 0.3 µM, first compound 0.0316 µM): 87.9% | viability, T/C (second compound 0.3 µM, first compound 0.1 µM): 80.6% | viability, T/C (second compound 0.3 µM, first compound 0.316 µM): 74.8% | viability, T/C (second compound 0.3 µM, first compound 1 µM): 51.9% | viability, T/C (second compound 0.3 µM, first compound 3.16 µM): 37% | viability, T/C (second compound 0.3 µM, first compound 10 µM): 33.1% | viability, T/C (second compound 0.949 µM, first compound 0.0316 µM): 61.8% | viability, T/C (second compound 0.949 µM, first compound 0.1 µM): 48.5% | viability, T/C (second compound 0.949 µM, first compound 0.316 µM): 28.4% | viability, T/C (second compound 0.949 µM, first compound 1 µM): 26.7% | viability, T/C (second compound 0.949 µM, first compound 3.16 µM): 14.4% | viability, T/C (second compound 0.949 µM, first compound 10 µM): 8.03% | viability, T/C (second compound 3 µM, first compound 0.0316 µM): 18.1% | viability, T/C (second compound 3 µM, first compound 0.1 µM): 17% | viability, T/C (second compound 3 µM, first compound 0.316 µM): 13.2% | viability, T/C (second compound 3 µM, first compound 1 µM): 6.56% | viability, T/C (second compound 3 µM, first compound 3.16 µM): 6.29% | viability, T/C (second compound 3 µM, first compound 10 µM): 5.54% | viability, T/C (second compound 9.49 µM, first compound 0.0316 µM): 9.9% | viability, T/C (second compound 9.49 µM, first compound 0.1 µM): 9.69% | viability, T/C (second compound 9.49 µM, first compound 0.316 µM): 8.57% | viability, T/C (second compound 9.49 µM, first compound 1 µM): 5.76% | viability, T/C (second compound 9.49 µM, first compound 3.16 µM): 3.41% | viability, T/C (second compound 9.49 µM, first compound 10 µM): 2.85% | viability, T/C (second compound 30 µM, first compound 0.0316 µM): 6.53% | viability, T/C (second compound 30 µM, first compound 0.1 µM): 6.06% | viability, T/C (second compound 30 µM, first compound 0.316 µM): 4.67% | viability, T/C (second compound 30 µM, first compound 1 µM): 3.84% | viability, T/C (second compound 30 µM, first compound 3.16 µM): 2.64% | viability, T/C (second compound 30 µM, first compound 10 µM): 1.58%
